Values quoted from earlier work as cited in PubChem BioAssay AID1259409 (Chemical Carcinogenesis Research Information System (CCRIS), 2018).

Test system: rodent chemically induced tumor inhibition, incidence and multiplicity
Experiment: CCRIS tumor inhibitor studies

Cc1c2ccncc2c(C)c2c1[nH]c1ccccc12
tumour outcome (control, treated, inhibition, significance) (Carcinogen: 7,12-DIMETHYLBENZ[A]ANTHRACENE, 57-97-6, Dose [Inhibitor]: 0, 4.1 NMOL IN 0.2 ML ACETONE APPLIED 5 MIN PRIOR TO CARCINOGEN (STUDY DURATION: 21 WK), Route [Inhibitor]: DERMAL, Species: MOUSE, Strain/Sex: SENCAR/FEMALE, Target Tissue: Type of Lesion: SKIN: PAPILLOMA, Dose [Carcinogen]: 10 NMOL IN 0.2 ML ACETONE ONCE, Promoter: 12-O-TETRADECANOYLPHORBOL-13-ACETATE, 16561-29-8): 79%, 100%, -27%, not calculated
tumour outcome (control, treated, inhibition, significance) (Carcinogen: 7,12-DIMETHYLBENZ[A]ANTHRACENE, 57-97-6, Dose [Inhibitor]: 0, 41 NMOL IN 0.2 ML ACETONE APPLIED 5 MIN PRIOR TO CARCINOGEN (STUDY DURATION: 21 WK), Route [Inhibitor]: DERMAL, Species: MOUSE, Strain/Sex: SENCAR/FEMALE, Target Tissue: Type of Lesion: SKIN: PAPILLOMA, Dose [Carcinogen]: 10 NMOL IN 0.2 ML ACETONE ONCE, Promoter: 12-O-TETRADECANOYLPHORBOL-13-ACETATE, 16561-29-8): 79%, 87%, -10%, not calculated
tumour outcome (control, treated, inhibition, significance) (Carcinogen: 7,12-DIMETHYLBENZ[A]ANTHRACENE, 57-97-6, Dose [Inhibitor]: 0, 410 NMOL IN 0.2 ML ACETONE APPLIED 5 MIN PRIOR TO CARCINOGEN (STUDY DURATION: 21 WK), Route [Inhibitor]: DERMAL, Species: MOUSE, Strain/Sex: SENCAR/FEMALE, Target Tissue: Type of Lesion: SKIN: PAPILLOMA, Dose [Carcinogen]: 10 NMOL IN 0.2 ML ACETONE ONCE, Promoter: 12-O-TETRADECANOYLPHORBOL-13-ACETATE, 16561-29-8): 79%, 47%, 41%, not calculated
tumour outcome (control, treated, inhibition, significance) (Carcinogen: 7,14-DIMETHYLBENZO[A,H]ANTHRACENE, 35335-07-0, Dose [Inhibitor]: 0, 4.1 NMOL IN 0.2 ML ACETONE APPLIED 5 MIN PRIOR TO CARCINOGEN (STUDY DURATION: 21 WK), Route [Inhibitor]: DERMAL, Species: MOUSE, Strain/Sex: SENCAR/FEMALE, Target Tissue: Type of Lesion: SKIN: PAPILLOMA, Dose [Carcinogen]: 47.5 NMOL IN 0.2 ML ACETONE ONCE, Promoter: 12-O-TETRADECANOYLPHORBOL-13-ACETATE, 16561-29-8): 97%, 100%, -3%, not calculated
tumour outcome (control, treated, inhibition, significance) (Carcinogen: 7,14-DIMETHYLBENZO[A,H]ANTHRACENE, 35335-07-0, Dose [Inhibitor]: 0, 41 NMOL IN 0.2 ML ACETONE APPLIED 5 MIN PRIOR TO CARCINOGEN (STUDY DURATION: 21 WK), Route [Inhibitor]: DERMAL, Species: MOUSE, Strain/Sex: SENCAR/FEMALE, Target Tissue: Type of Lesion: SKIN: PAPILLOMA, Dose [Carcinogen]: 47.5 NMOL IN 0.2 ML ACETONE ONCE, Promoter: 12-O-TETRADECANOYLPHORBOL-13-ACETATE, 16561-29-8): 97%, 93%, 4%, not calculated
tumour outcome (control, treated, inhibition, significance) (Carcinogen: 7,14-DIMETHYLBENZO[A,H]ANTHRACENE, 35335-07-0, Dose [Inhibitor]: 0, 410 NMOL IN 0.2 ML ACETONE APPLIED 5 MIN PRIOR TO CARCINOGEN (STUDY DURATION: 21 WK), Route [Inhibitor]: DERMAL, Species: MOUSE, Strain/Sex: SENCAR/FEMALE, Target Tissue: Type of Lesion: SKIN: PAPILLOMA, Dose [Carcinogen]: 47.5 NMOL IN 0.2 ML ACETONE ONCE, Promoter: 12-O-TETRADECANOYLPHORBOL-13-ACETATE, 16561-29-8): 97%, 90%, 7%, not calculated
tumour outcome (control, treated, inhibition, significance) (Carcinogen: DIBENZO[A,H]ANTHRACENE, 53-70-3, Dose [Inhibitor]: 0, 4.1 NMOL IN 0.2 ML ACETONE APPLIED 5 MIN PRIOR TO CARCINOGEN (STUDY DURATION: 21 WK), Route [Inhibitor]: DERMAL, Species: MOUSE, Strain/Sex: SENCAR/FEMALE, Target Tissue: Type of Lesion: SKIN: PAPILLOMA, Dose [Carcinogen]: 200 NMOL IN 0.2 ML ACETONE ONCE, Promoter: 12-O-TETRADECANOYLPHORBOL-13-ACETATE, 16561-29-8): 100%, 87%, 13%, not calculated
tumour outcome (control, treated, inhibition, significance) (Carcinogen: DIBENZO[A,H]ANTHRACENE, 53-70-3, Dose [Inhibitor]: 0, 41 NMOL IN 0.2 ML ACETONE APPLIED 5 MIN PRIOR TO CARCINOGEN (STUDY DURATION: 21 WK), Route [Inhibitor]: DERMAL, Species: MOUSE, Strain/Sex: SENCAR/FEMALE, Target Tissue: Type of Lesion: SKIN: PAPILLOMA, Dose [Carcinogen]: 200 NMOL IN 0.2 ML ACETONE ONCE, Promoter: 12-O-TETRADECANOYLPHORBOL-13-ACETATE, 16561-29-8): 100%, 97%, 3%, not calculated
tumour outcome (control, treated, inhibition, significance) (Carcinogen: DIBENZO[A,H]ANTHRACENE, 53-70-3, Dose [Inhibitor]: 0, 410 NMOL IN 0.2 ML ACETONE APPLIED 5 MIN PRIOR TO CARCINOGEN (STUDY DURATION: 21 WK), Route [Inhibitor]: DERMAL, Species: MOUSE, Strain/Sex: SENCAR/FEMALE, Target Tissue: Type of Lesion: SKIN: PAPILLOMA, Dose [Carcinogen]: 200 NMOL IN 0.2 ML ACETONE ONCE, Promoter: 12-O-TETRADECANOYLPHORBOL-13-ACETATE, 16561-29-8): 100%, 97%, 3%, not calculated

S=C=NCCCCc1ccccc1
tumour outcome (control, treated, inhibition, significance) (Carcinogen: 4-(METHYLNITROSAMINO)-1-(3-PYRIDYL)-1-BUTANONE, 64091-91-4, Dose [Inhibitor]: 0, 0.2 UMOL 1/D FOR 4 D ADMINISTERED PRIOR TO CARCINOGEN TREATMENT (STUDY DURATION:116D), Route [Inhibitor]: GAVAGE, Species: MOUSE, Strain/Sex: STRAIN A, Target Tissue: Type of Lesion: LUNG: ADENOMA, Dose [Carcinogen]: 10 UMOL ONCE 2 HR AFTER FINAL DOSE OF INHIBITOR, Promoter: NONE USED): 100%, 100%, 0%, not significant
tumour outcome (control, treated, inhibition, significance) (Carcinogen: 4-(METHYLNITROSAMINO)-1-(3-PYRIDYL)-1-BUTANONE, 64091-91-4, Dose [Inhibitor]: 0, 1 UMOL 1/D FOR 4 D ADMINISTERED PRIOR TO CARCINOGEN TREATMENT (STUDY DURATION:116 D), Route [Inhibitor]: GAVAGE, Species: MOUSE, Strain/Sex: STRAIN A, Target Tissue: Type of Lesion: LUNG: ADENOMA, Dose [Carcinogen]: 10 UMOL ONCE 2 HR AFTER FINAL DOSE OF INHIBITOR, Promoter: NONE USED): 100%, 42%, 58%, p<0.05
tumour outcome (control, treated, inhibition, significance) (Carcinogen: 4-(METHYLNITROSAMINO)-1-(3-PYRIDYL)-1-BUTANONE, 64091-91-4, Dose [Inhibitor]: 0, 5 UMOL 1/D FOR 4 D ADMINISTERED PRIOR TO CARCINOGEN TREATMENT (STUDY DURATION: 116D), Route [Inhibitor]: GAVAGE, Species: MOUSE, Strain/Sex: STRAIN A, Target Tissue: Type of Lesion: LUNG: ADENOMA, Dose [Carcinogen]: 10 UMOL ONCE 2 HR AFTER FINAL DOSE OF INHIBITOR, Promoter: NONE USED): 100%, 11%, 89%, p<0.05
tumour outcome (control, treated, inhibition, significance) (Carcinogen: 4-(METHYLNITROSAMINO)-1-(3-PYRIDYL)-1-BUTANONE, 64091-91-4, Dose [Inhibitor]: 0, 5 UMOL 1/D FOR 4 D ADMINISTERED PRIOR TO CARCINOGEN DOSE (STUDY DURATION: 116 D), Route [Inhibitor]: GAVAGE, Species: MOUSE, Strain/Sex: STRAIN-A, Target Tissue: Type of Lesion: LUNG: ADENOMA, Dose [Carcinogen]: 10 UMOL IN SALINE ADMINISTERED 2 HR POST LAST AGENT DOSE, Promoter: NONE USED): 100%, 32%, 68%, p<0.001
tumour outcome (control, treated, inhibition, significance) (Carcinogen: 4-(N-NITROSOMETHYLAMINO)-1-(3-PYRIDYL)-1-BUTANONE, 64091-91-4, Dose [Inhibitor]: 0, 5 UMOL/D FOR 4 CONSECUTIVE DAYS (STUDY DURATION: 16.5 WK), Route [Inhibitor]: GAVAGE, Species: MOUSE, Strain/Sex: STRAIN-A/FEMALE, Target Tissue: Type of Lesion: LUNG: ADENOMA, Dose [Carcinogen]: 10 UMOL ONCE 2 HR POST LAST AGENT DOSE, Promoter: NONE USED): 100%, 32%, 68%, not calculated
tumour outcome (control, treated, inhibition, significance) (Carcinogen: N-NITROSOMETHYLBENZYLAMINE, 937-40-6, Dose [Inhibitor]: 0, 0.4 UMOL/G IN DIET FOR 25 WK BEGINNING 2 WK PRIOR TO CARCINOGEN TREATMENT (STUDY DURATION: 25 WK), Route [Inhibitor]: ORAL, Species: RAT, Strain/Sex: F344/MALE, Target Tissue: Type of Lesion: ESOPHAGUS: TUMOR, Dose [Carcinogen]: 0.5 MG/KG BW IN 20% DMSO 1/WK FOR 15 WK, Promoter: NONE USED): 100%, 93%, 7%, not significant
tumour outcome (control, treated, inhibition, significance) (Carcinogen: N-NITROSOMETHYLBENZYLAMINE, 937-40-6, Dose [Inhibitor]: 0, 1 UMOL/G IN DIET FOR 25 WK BEGINNING 2 WK PRIOR TO CARCINOGEN TREATMENT (STUDY DURATION: 25 WK), Route [Inhibitor]: ORAL, Species: RAT, Strain/Sex: F344/MALE, Target Tissue: Type of Lesion: ESOPHAGUS: TUMOR, Dose [Carcinogen]: 0.5 MG/KG BW IN 20% DMSO 1/WK FOR 15 WK, Promoter: NONE USED): 100%, 93%, 7%, not significant
tumour outcome (control, treated, inhibition, significance) (Carcinogen: N-NITROSOMETHYLBENZYLAMINE, 937-40-6, Dose [Inhibitor]: 0, 2.5 UMOL/G IN DIET FOR 25 WK BEGINNING 2 WK PRIOR TO CARCINOGEN TREATMENT (STUDY DURATION: 25 WK), Route [Inhibitor]: ORAL, Species: RAT, Strain/Sex: F344/MALE, Target Tissue: Type of Lesion: ESOPHAGUS: TUMOR, Dose [Carcinogen]: 0.5 MG/KG BW IN 20% DMSO 1/WK FOR 15 WK, Promoter: NONE USED): 100%, 100%, 0%, not significant

CCCC(=O)C1=C(O)C(Cc2c(O)c(C)c(OC)c(C(=O)CCC)c2O)=C(O)C(C)(C)C1=O
tumour outcome (control, treated, inhibition, significance) (Carcinogen: 7,12-DIMETHYLBENZ[A]ANTHRACENE [57-97-6], Dose [Inhibitor]: 85 NMOL/G IN 0.1 ML ACETONE 2X/WK FOR 20 WK 1 HR PRIOR TO EACH PROMOTER DOSE BEGINNING 1 WK POST LAST CARCINOGEN DOSE (S, Route [Inhibitor]: DERMAL, Species: MOUSE, Strain/Sex: ICR/FEMALE, Target Tissue: Type of Lesion: SKIN: PAPILLOMA, Dose [Carcinogen]: 390 NMOL IN 0.1 ML ACETONE ONCE (STUDY DURATION: 21 WK), Promoter: 12-O-TETRADECANOYL-13-ACETATE [16561-29-8]): 100%, 85%, 15%, not calculated
